How the values were obtained:
Abdominal macrophages = assay: IL-18 release from macrophages with paraquat stimulation; type: cell-based, mouse; settings: 100 nM paraquat 15 minutes, SOD 1-20 U/ml
Method: Abdominal macrophages isolated from mice by the method of Hamilton et al. (Hamilton T A, Weiel J E, Adams D O., J. Immunol. 1984 May; 132(5):2285-90) were cultured in Dulbecco's minimum essential medium at 1.0-2.0×10^5/dish. The medium was exchanged with the aforementioned medium containing 100 nM of paraquat, which is an active oxygen generator, and the cells were cultured for 15 minutes, after which the medium was exchanged with a paraquat-free medium, and the cells were further cultured for 3 hours, after which the medium was collected, and the concentration of IL-18 protein in the medium was measured.

Brain astrocytes = assay: IL-18 release from astrocytes with paraquat stimulation; type: cell-based, mouse; settings: astrocytes, 100 nM paraquat 1 hour; SOD 1-20 U/ml or water-soluble vitamin E 100 nM-10 mM/ml
Method: Brain astrocytes isolated from the mouse neonatal brain by the method of Yang et al. (Yang P, Hernandez M R. Brain Res Brain Res Protoc. 2003 October; 12(2):67-76) were prepared at 1.5-2.0×10^6/ml. This was cultured in Dulbecco's minimum essential medium containing 100 nM of paraquat, which is an active oxygen generator, for 1 hour, after which the medium was exchanged with a paraquat-free medium. The cells were further cultured for 3 hours, after which the medium was collected, and the concentration of IL-18 protein in the medium was measured.

procaspase-11 = assay: Procaspase-11 protein in the adrenal of restraint stress mice (Western blotting); type: in vivo, mouse; settings: given i.p. during restraint
Method: Each mouse was kept in a restrainer for 1 hour, and Ac-YVAD-CHO (200 μM/50 μl PBS(−)), Z-FA-fmk (100 μM/50 μl PBS(−)) and SB-203580 (100 μg/50 μl PBS(−) per mouse) were administered intraperitoneally. 1 and 3 hours after the start of restraint, SOD-1 (20 U) and DPI (30 μg) were administered intraperitoneally to the mouse, and samples were analyzed by Western blotting.
Western blot analysis of IL-18 and phosphorylated P38MAP kinase in adrenal tissue was performed as described below. The adrenal tissue was homogenized in an immunoprecipitation (IP) buffer solution (50 mM Tris pH 7.4, 150 mM NaCl, 0.5% NP-40 and 0.5% sodium deoxycholate) containing a protease inhibitor mixture (manufactured by Roche Diagnostics) using a Polytron homogenizer. […] The aforementioned membrane was incubated with an antibody (IL-18, phosphorylated (Thr180/Tyr182) P38 MAP kinase, caspase-1 or caspase-11), and the reacted protein was detected using an ECL plus system (manufactured by Amersham biosciences). Procaspase-11 and activated P38 MAP kinase were quantified using a Science Lab 99 image analysis system (manufactured by Fujifilm).

[1] = test system: Primary culture human renal proximal tubular epithelial cells; assay: IL-18 release from renal tubular epithelial cells with paraquat stimulation; type: cell-based; settings: renal tubular epithelial cells, 100 nM paraquat 15 minutes; SOD 1-20 U/ml or water-soluble vitamin E 100 nM-10 mM/ml
Method: Primary culture human renal proximal tubular epithelial cells (purchased from CAMBREX Company) were cultured in a basal medium for renal tubular cells: contents 10 μg/ml hEGF (recombinant human epithelial cell growth factor) 0.5 ml, 5 mg/ml insulin 0.5 ml, 0.5 mg/ml hydrocortisone 0.5 ml, FBS (fetal bovine serum) 2.5 ml, 0.5 mg/ml epinephrine 0.5 ml, 6.5 μg/ml triiodothyronine 0.5 ml, 10 mg/ml transferrin 0.5 ml, 50 mg/ml gentamycin, 50 μg/ml amphotericin-B 0.5 ml), in petri dishes for cell culture 6 cm in diameter at 1.0-2.0×10^6/dish. This was cultured in the aforementioned medium containing 100 nM of paraquat, which is an active oxygen generator, for 15 minutes, after which the medium was exchanged with the same but paraquat-free medium. After the cells were further cultured for 1 hour, the medium was collected, and the concentration of IL-18 protein in the medium was measured.

Synovial membrane tissue = assay: IL-18 release from synovial membrane tissue with paraquat stimulation; type: cell-based, human; settings: synovial membrane tissue of articular rheumatism patient, 100 nM paraquat 15 minutes; SOD 1-20 U/ml
Method: Synovial membrane tissue collected from the articular synovial membrane at a lesion site of an articular rheumatism patient was subjected to tissue culture in an RPMI-1640 medium containing 10% fetal bovine serum by the method of Tanaka et al. (Tanaka M, Harigai M, Kawaguchi Y, Ohta S, Sugiura T, Takagi K, Ohsako-Higami S, Fukasawa C, Hara M, Kamatani N., J. Rheumatol. 2001 August; 28(8):1779-87). The medium was exchanged with the aforementioned medium containing 100 nM of paraquat, which is an active oxygen generator, and the cells were cultured for 15 minutes, after which the medium was exchanged with a paraquat-free medium, and the cells were further cultured for 1 hour, after which the medium was collected, and the concentration of IL-18 protein in the medium was measured.

Brain microglia = assay: IL-18 release from microglia with paraquat stimulation; type: cell-based, mouse; settings: microglia, 100 nM paraquat 1 hour; SOD 1-20 U/ml or water-soluble vitamin E 100 nM-10 mM/ml
Method: Brain microglia isolated from the mouse neonatal brain by the method of Hassan et al. (Hassan N F, Rifat S, Campbell D E, McCawley L J, Douglas S D. J. Leukoc Biol. 1991 July; 50(1):86-92) were cultured at 1.5-2.0×10^6/ml. This was cultured in Dulbecco's minimum essential medium containing 100 nM of paraquat, which is an active oxygen generator, for 1 hour, after which the medium was exchanged with a paraquat-free medium. After further cultivation for 3 hours, the medium was collected, and the concentration of IL-18 protein in the medium was measured.

IL-6 = assay: Plasma IL-6 level in stress-loaded wild type mice (ELISA); type: in vivo, mouse; settings: stress-loaded WT mice; FIG. 5B
Method: For restraint stress, each mouse was kept in a restrainer (a round plastic tube 27 mm in diameter) for 1, 3 or 6 hours, and IL-18 levels were measured. Regarding the analysis of IL-6, each mouse was restrained as described above, and then housed in the starting cage for 6 hours, after which a measurement was performed.
After restraint, each mouse was anesthetized with diethyl ether, and blood was drawn into an EDTA-containing tube. Plasma was separated by centrifugation at 4° C. and 10000×g for 10 minutes, and stored at −80° C. IL-18 and IL-6 were analyzed by ELISA using Quantikine™ immunoassay kit (R&D Systems) and OptEIA™ (BD-Pharmingen), respectively.
Using IL-18-deficient mice, the relationship between IL-6, which is another stress-related cytokine, and IL-18, was examined. Without stress, IL-6 was undetectable in WT and IL-18 KO, but after 3 hours of stress loading, the IL-6 level was 230 pg/ml in WT and 25 pg/ml in IL-18 KO (FIG. 5A). After liberation from the stress, plasma IL-6 was kept at about 80 pg/ml in WT, but decreased to 5 pg/ml in IL-18 KO (FIG. 5A). Treatment with YVAD-CHO, SOD and anti-IL-18 antibody 70% inhibited the stress-induced increase in plasma IL-6 level in WT (FIG. 5B).

## SOD: superoxide dismutase (SOD)-1 purchased from Sigma; active oxygen eliminator
Abdominal macrophages
  activation and release of IL-18 into the medium: suppressed
Brain astrocytes
  activation and release of IL-18 into the medium: suppressed
procaspase-11
  stress-induced increase in procaspase-11 protein: reduced
[1]
  activation and release of IL-18 into the medium: suppressed
Synovial membrane tissue
  activation and release of IL-18 into the medium: suppressed
Brain microglia
  activation and release of IL-18 into the medium: suppressed
IL-6
  inhibition of the stress-induced increase in plasma IL-6 level: 70%
